Values joined by “and” are separate entries in the source; they are usually repeats but may differ in a detail not shown here. Identical values can stand only once. Inconclusive results and toxic doses are left out. Numbered stars: 1 amine (or outer) side, 2 acyl side, 3 side chain; on linkers, the order of the positions; unused ones are H or OH. Square brackets hold non-standard residues; d marks the D form. Peptide text beside a SMILES is read from it. * marks the point of attachment. ξ: configuration not given here. X4 = CCC(=O)CC(O)CC(C)CC(N[*:1])C(=O)[*:2]; ξLeu(3ξ-OH) = CC(C)C(O)C(N)C(=O)O; ξPro(4ξ-Me) = CC1CNC(C(=O)O)C1; X3 = CCC(C)/C=C/C(=O)*; Aib = CC(C)(N)C(=O)O; X5 = CC(CN(C)C)N*; βAla = NCCC(=O)O

In this assay the test system is P388 leukemia ip, CD2F1 mice, survival T/C. As to the kind of experiment: NCI In Vivo Anticancer Drug Screen. Data for tumor model P388 Leukemia (intraperitoneal) in CD2F1 (CDF1) mice. The settings on record: endpoint: median survival time, higher = longer survival. The procedure, abridged:
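Mice carrying the transplanted tumor received test compound or vehicle. Survival was recorded in each group, and the value is the treated-group measurement divided by that of the vehicle-treated control group.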

Where [1] appears, read: dose: 100.0 mg/kg/injection, schedule: Q04DX002 (ip), vehicle: Klucel (hydroxypropylcellulose) (HPC).
[2] abbreviates: dose: 200.0 mg/kg/injection, schedule: Q04DX002 (ip), vehicle: Klucel (hydroxypropylcellulose) (HPC).
[3] abbreviates: dose: 60.0 mg/kg/injection, schedule: Q01DX005 (ip), vehicle: saline with Tween-80.
The mark [4] stands for this setting: dose: 120.0 mg/kg/injection, schedule: Q01DX005 (ip), vehicle: saline with Tween-80.
Setting [5] is: dose: 240.0 mg/kg/injection, schedule: Q01DX005 (ip), vehicle: saline with Tween-80.
Setting [6] is: dose: 50.0 mg/kg/injection, schedule: Q01DX009 (ip), vehicle: saline with Tween-80.
Where [7] appears, read: dose: 100.0 mg/kg/injection, schedule: Q01DX009 (ip), vehicle: saline with Tween-80.
[8] abbreviates: dose: 50.0 mg/kg/injection, schedule: Q01DX009 (ip), vehicle: saline.

For `C1=C(C2CCCC3[C@@H]4C[C@@H](CN23)C2CCCCN2C4)CCC2[C@H]3C[C@H](CN12)C1CCCCN1C3` (stereo partly drawn), the T/C (dose: 3.75 mg/kg/injection, schedule: Q01DX005 (ip), vehicle: Klucel (hydroxypropylcellulose) (HPC)) is 106 % of control; the T/C (dose: 7.5 mg/kg/injection, schedule: Q01DX005 (ip), vehicle: Klucel (hydroxypropylcellulose) (HPC)) is 104 % of control; the T/C (dose: 15.0 mg/kg/injection, schedule: Q01DX005 (ip), vehicle: Klucel (hydroxypropylcellulose) (HPC)) is 110 % of control and 96 % of control; the T/C (dose: 30.0 mg/kg/injection, schedule: Q01DX005 (ip), vehicle: Klucel (hydroxypropylcellulose) (HPC)) is 100 % of control.
Regarding `Cn1cnc([N+](=O)[O-])c1[Se]c1nc(N)nc2c1ncn2C1OC(CO)C(O)C1O` (stereo not drawn), the T/C (dose: 2.0 mg/kg/injection, schedule: Q01DX009 (ip), vehicle: distilled water + Tween-80) is 116 % of control; the T/C (dose: 4.0 mg/kg/injection, schedule: Q01DX009 (ip), vehicle: distilled water + Tween-80) is 121 % of control; the T/C (dose: 32.0 mg/kg/injection, schedule: Q01DX009 (ip), vehicle: distilled water + Tween-80) is 160 % of control; the T/C (dose: 32.0 mg/kg/injection, schedule: Q01DX009 (ip), vehicle: water) is 175 % of control; the T/C (dose: 64.0 mg/kg/injection, schedule: Q01DX009 (ip), vehicle: water) was 100 % of control.
Take `NC(Cc1ccc(O)cc1)C(=O)N/N=C/c1ccc2c(c1)OCO2` (stereo not drawn): the T/C is, setting by setting: (dose: 50.0 mg/kg/injection, schedule: Q01DX005 (ip), vehicle: saline with Tween-80) 92 % of control; (dose: 100.0 mg/kg/injection, schedule: Q01DX005 (ip), vehicle: saline with Tween-80) 99 % of control; (dose: 200.0 mg/kg/injection, schedule: Q01DX005 (ip), vehicle: saline with Tween-80) 103 % of control.
On to `Nc1nnnn1/N=C/c1ccccc1`, for which the T/C runs as follows: (dose: 50.0 mg/kg/injection, schedule: Q04DX002 (ip), vehicle: Klucel (hydroxypropylcellulose) (HPC)) 87 % of control; under setting [1], 101 % of control; under setting [2], 100 % of control.
On to `COc1ccc(OC)c(NC(=O)CCCC(=O)C(C#N)c2ccccc2C)c1` (stereo not drawn), for which the T/C runs as follows: under setting [3], 105 % of control; under setting [4], 105 % of control; under setting [5], 104 % of control.
`COc1ccc2nc(Cl)c(Br)c(C)c2c1`: the T/C is, setting by setting: under setting [3], 95 % of control; under setting [4], 92 % of control; under setting [5], 90 % of control.
Regarding `CCOC(=S)NC(=O)c1ccccc1`, the T/C was 99 % of control under setting [6]; 108 % of control under setting [7]; 100 % of control (dose: 200.0 mg/kg/injection, schedule: Q01DX009 (ip), vehicle: saline with Tween-80).
Take `CCC(O)CN(C)Cc1cc2c(c3ccccc13)CCCC2` (stereo not drawn): the T/C was 106 % of control under setting [8] and 108 % of control (dose: 100.0 mg/kg/injection, schedule: Q01DX009 (ip), vehicle: saline).
For `CCn1c(=O)c(C#N)c2n(CC)c3cc(C)c(C)cc3n2c1=O`, the T/C reads like this: under setting [3], 90 % of control; under setting [4], 86 % of control; under setting [5], 86 % of control.
In the case of `CCOc1ccc(-n2c(=O)c(N=Nc3ccccc3OC)c(O)n(-c3ccccc3Cl)c2=S)cc1`, the T/C by setting is: (dose: 100.0 mg/kg/injection, schedule: Q01DX001 (ip), vehicle: Klucel (hydroxypropylcellulose) (HPC)) 102 % of control; (dose: 200.0 mg/kg/injection, schedule: Q01DX001 (ip), vehicle: Klucel (hydroxypropylcellulose) (HPC)) 101 % of control; (dose: 400.0 mg/kg/injection, schedule: Q01DX001 (ip), vehicle: Klucel (hydroxypropylcellulose) (HPC)) 105 % of control.
On to `C/C(=C/c1cc(Br)c2c(c1)OCO2)[N+](=O)[O-]`, for which the T/C by setting is: (dose: 100.0 mg/kg/injection, schedule: Q01DX001 (ip), vehicle: saline with Tween-80) 110 % of control; (dose: 200.0 mg/kg/injection, schedule: Q01DX001 (ip), vehicle: saline with Tween-80) 100 % of control; (dose: 400.0 mg/kg/injection, schedule: Q01DX001 (ip), vehicle: saline with Tween-80) 99 % of control.
For `COC(=O)C1=CO[C@@H](O)[C@@H]2C(C)OC(=O)C[C@H]12` (stereo partly drawn), the T/C by setting is: (dose: 60.0 mg/kg/injection, schedule: Q01DX005 (ip), vehicle: saline) 104 % of control; (dose: 120.0 mg/kg/injection, schedule: Q01DX005 (ip), vehicle: saline) 104 % of control; (dose: 240.0 mg/kg/injection, schedule: Q01DX005 (ip), vehicle: saline) 109 % of control.
In the case of `CCC(=O)CC(O)CC(C)CC(NC(=O)C1CC(C)CN1C(=O)/C=C/C(C)CC)C(=O)NC(C(=O)NC(C)(C)C(=O)NC(CC(C)C)C(=O)NC(CC(C)C)C(=O)NC(C)(C)C(=O)NC(C)(C)C(=O)NCCC(=O)NC(C)CN(C)C)C(O)C(C)C` (stereo not drawn) (X3-[ξPro(4ξ-Me)][X4][ξLeu(3ξ-OH)][Aib]LL[Aib][Aib][βAla]-X5; configuration not given here), the T/C (dose: 50.0 micrograms/kg/injection, schedule: Q01DX005 (ip), vehicle: saline + alcohol) is 101 % of control; the T/C (dose: 100.0 micrograms/kg/injection, schedule: Q01DX005 (ip), vehicle: saline + alcohol) was 101 % of control; the T/C (dose: 200.0 micrograms/kg/injection, schedule: Q01DX005 (ip), vehicle: saline + alcohol) was 101 % of control; the T/C (dose: 400.0 micrograms/kg/injection, schedule: Q01DX005 (ip), vehicle: saline + alcohol) is 111 % of control; the T/C (dose: 800.0 micrograms/kg/injection, schedule: Q01DX005 (ip), vehicle: saline + alcohol) is 110 % of control.
With `CC(C)CCCCCCCCCCCCC(O)CC(=O)O` (stereo not drawn), the T/C (dose: 8.75 mg/kg/injection, schedule: Q01DX005 (ip), vehicle: Klucel + Tween-80) was 92 % of control; the T/C (dose: 17.5 mg/kg/injection, schedule: Q01DX005 (ip), vehicle: Klucel + Tween-80) was 86 % of control; the T/C (dose: 35.0 mg/kg/injection, schedule: Q01DX005 (ip), vehicle: Klucel + Tween-80) was 95 % of control.
As to `O=C(CC(=O)C(F)(F)F)c1ccc(-c2ccccc2)cc1`, the T/C is 110 % of control (dose: 25.0 mg/kg/injection, schedule: Q01DX009 (ip), vehicle: saline with Tween-80); 116 % of control under setting [6]; 111 % of control under setting [7].
On to `O=C(NCCc1ccccn1)c1cc(Cl)ccc1O`, for which the T/C reads like this: under setting [1], 95 % of control; under setting [2], 103 % of control; (dose: 400.0 mg/kg/injection, schedule: Q04DX002 (ip), vehicle: Klucel (hydroxypropylcellulose) (HPC)) 100 % of control.
Turning to `Cc1cc(Br)c(OC(=O)Nc2cccc(Cl)c2Cl)cc1C`, the T/C is 88 % of control (dose: 12.5 mg/kg/injection, schedule: Q01DX009 (ip), vehicle: saline); 99 % of control (dose: 25.0 mg/kg/injection, schedule: Q01DX009 (ip), vehicle: saline); 88 % of control under setting [6]; 119 % of control under setting [8]; 114 % of control under setting [7].
Consider `CN(C)NCCCCCNN(C)C`, for which the T/C (dose: 50.0 mg/kg/injection, schedule: Q01DX005 (ip), vehicle: Klucel (hydroxypropylcellulose) (HPC)) is 100 % of control; the T/C (dose: 100.0 mg/kg/injection, schedule: Q01DX005 (ip), vehicle: Klucel (hydroxypropylcellulose) (HPC)) is 102 % of control; the T/C (dose: 200.0 mg/kg/injection, schedule: Q01DX005 (ip), vehicle: Klucel (hydroxypropylcellulose) (HPC)) was 102 % of control.
Consider `CN(C)[C@@H]1C(=O)C(C(N)=O)=C(O)[C@@]2(O)C(=O)C3=C(O)c4c(O)cccc4C[C@H]3C[C@@H]12`, for which the T/C reads like this: (dose: 7.5 mg/kg/injection, schedule: Q01DX010 (ip), vehicle: saline) 115 % of control; (dose: 15.0 mg/kg/injection, schedule: Q01DX010 (ip), vehicle: saline) 120 % of control.
As for `CN1CC(=O)NC2C=CN(Cc3c(Cl)cccc3Cl)C=C2C1=O` (stereo not drawn), the T/C reads like this: under setting [3], 89 % of control and 90 % of control; under setting [4], 88 % of control; under setting [5], 87 % of control and 90 % of control.
As for `Oc1ccc(N=Nc2ccc3ccc4cccc5ccc2c3c45)c2cccnc12`, the T/C reads like this: (dose: 25.0 mg/kg/injection, schedule: Q04DX003 (ip), vehicle: Klucel (hydroxypropylcellulose) (HPC)) 101 % of control; (dose: 50.0 mg/kg/injection, schedule: Q04DX003 (ip), vehicle: Klucel (hydroxypropylcellulose) (HPC)) 101 % of control; (dose: 100.0 mg/kg/injection, schedule: Q04DX003 (ip), vehicle: Klucel (hydroxypropylcellulose) (HPC)) 100 % of control.
For the compound `O=C1OCC/C1=C1/NC2CCCCC2NC1=O` (stereo not drawn), the T/C under setting [6] was 94 % of control and the T/C under setting [7] was 94 % of control.
Take `Nc1c(Cl)ccc2cccnc12`: the T/C runs as follows: (dose: 50.0 mg/kg/injection, schedule: Q01DX005 (ip), vehicle: saline + Tween-80 + alcohol) 107 % of control; (dose: 100.0 mg/kg/injection, schedule: Q01DX005 (ip), vehicle: saline + Tween-80 + alcohol) 107 % of control; (dose: 200.0 mg/kg/injection, schedule: Q01DX005 (ip), vehicle: saline + Tween-80 + alcohol) 110 % of control.

The values above are taken from PubChem BioAssay AID330 (DTP/NCI, 2004).
